These results are taken from patent US5973005A, “Aqueous creatine solution and process of producing a stable, bioavailable aqueous creatine solution” (priority 1998, dated 1999).

Entries after “also recorded” stand apart in the source; their conditions may differ.

Series [1] deals with adenosine triphosphate resynthesis. The note with it: in muscle, creatine phosphate versus glycogen; cited from earlier work.
Another series is described as follows: physchem. The note with it: weakly alkaline water.
The conditions of series [2]: acidic conditions / stomach; cited from earlier work.
For series [3] the following is noted: endogenous level; cited from earlier work.

Procedure for physchem: A 1 ml sample was analyzed by HPLC using a Shimadzu LC-10AD Liquid Chromatograph. The operating parameters are as follows:
The operating parameters are as follows:

Regarding `CN(CC(=O)O)C(=N)NP(=O)(O)O` [Creatine phosphate], in series [1], the “rate of ATP resynthesis compared to glycogen” value is “nearly twice the rate”.

Turning to `CN(CC(=O)O)C(=N)N` [creatine, N-(aminoiminomethyl)-N-methylglycine], under “slightly alkaline water”, the “creatine remaining, by HPLC” value is given as “about 85%”. The “creatinine produced, by HPLC” value (weakly alkaline water) is reported as “about 15%”. The same compound had a degraded in “physchem” of about 15%. Moreover, in series [2], the “conversion to creatinine under acidic conditions” value is listed as “formation of creatinine from free creatine is complete; also recorded: rapidly converts to creatinine by the acidic conditions in the stomach”. The “normal creatine concentration in the bloodstream” value in series [3] was “about 50 μmol per liter of blood”.
